Test results: patent US20250213707A1, “COMPOUND FOR INCREASING EFFICACY OF ONCOLYTIC VIRUSES” (ABLEVIA BIOTECH GMBH, priority 2022, published 2025)

Key:
[1] = tested on: IgG from human donors (anti-AAV antibodies); experiment: Screen for anti-AAV antibodies in human sera, 2452 linear 15-amino-acid AAV peptides on microarrays (Table 1); format: binding; set-up: key to group I: X: the deduplicated aggregate of the respective top 10 peptide hits for each donor was compiled and designated as group I; key to group II: X: the deduplicated aggregate of the respective top 25 peptide hits for each donor was compiled and designated as group II; key to group III: X: the deduplicated aggregate of the respective top 50 peptide hits for each donor was compiled and designated as group III; conditions: human donor IgG binding to linear 15-amino-acid AAV peptides on microarray, fluorescence; for group I: membership in deduplicated aggregate of top 10 peptide hits for each donor; for group II: membership in deduplicated aggregate of top 25 peptide hits for each donor; for group III: membership in deduplicated aggregate of top 50 peptide hits for each donor
Outline: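 Peptide hits were grouped I to IV by pooling each donor's top 10, 25, 50 or 250 background-corrected fluorescence signals, after deduplication. Signals came from donor IgG, purified on protein G, bound to arrayed 15-residue linear peptides (2452 total) spanning 16 AAV sequences.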

[2] = tested on: mAb Mac2-158; experiment: Epitope mapping of mAb Mac2-158 with circular peptides of human CD163 SRCR domain 1; format: binding; conditions: circular peptides aligned to SRCR domain 1 of human CD163
From the text: As a result, the following sequences (as well as motifs derived therefrom) are highly suitable epitopes anti-CD163 antibodies and fragments thereof used as SADC biopolymer scaffold: […]

[3] = tested on: IgG from human donors (anti-measles virus antibodies); format: binding; set-up: key: X: The peptides belonging to the Top 10% hits
[4] = tested on: mAb 9C12; experiment: Epitope mapping of monoclonal antibody 9C12 against cyclic peptides of the AdV hexon protein (peptide microarray); format: binding, mice; conditions: cyclic 7mer, 10mer, 13mer peptides of AdV hexon
Method: Monoclonal antibody 9C12 (alias mAB TC31-9C12·C9-s) was generated by immunizing mice with the hexon protein (Uniprot ID: P04133 which corresponds to GenBank: BAG48782.1). […] In brief, diluted antibody was incubated with GFP-expressing replication-defective Ad vector and subsequently added to Hela cells followed by fluorescence readout. […] The binding signal of mAb 9C12 to the peptides yielded several candidates that could be aligned and clustered against the protein. An epitopic cluster region of 20 amino acids was identified from which paratope binding peptides can be preferentially derived. Below are the aligments of the corresponding peptide hits from this screen. […] Cyclic peptides were selected out of up to 50 top binders in this experiment.

Substance | group I [1] | group II [1] | group III [1] | peptide number among the top 20 peptide hits of mAb Mac2-158 [2] | top 10% [3] | ranked binding signal obtained from the microarray (01 binds strongest) [4]
PQYGYLTLNNGSQA (REGION 1..14: note = peptide derived from viral capsid protein) [SEQ ID NO: 1901] | X | X | X | 14 |  | 
YLYYLNRTQGTTSG [SEQ ID NO: 1925] | X | X | X |  | X | 
SNSQLIFAGPNPSG [SEQ ID NO: 1908] | X | X | X | 03 | X | 
LIKNTPVPADPPTT (REGION 1..14: note = peptide derived from viral capsid protein) [SEQ ID NO: 1900] | X | X | X | 12 |  | 
KTAPGKKRPVDQSP (REGION 1..14: note = peptide derived from viral capsid protein) [SEQ ID NO: 1920] | X | X | X |  | X | 
GKKRPVDQSPQEPD (REGION 1..14: note = peptide derived from viral capsid protein) [SEQ ID NO: 1919] | X | X | X |  | X | 
FGKQGAGRDNVDYS [SEQ ID NO: 1915] | X | X | X |  | X | 
ANNLTSTVQIFADS (REGION 1..14: note = peptide derived from viral capsid protein) [SEQ ID NO: 1895] | X | X | X |  | X | 
LEDNLSEGIREWWD (REGION 1..14: note = peptide derived from viral capsid protein) [SEQ ID NO: 1898] | X | X | X | 04 |  | 
KIFNIQVKEVTTSN (REGION 1..14: note = peptide derived from viral capsid protein) [SEQ ID NO: 1896] | X | X | X | 20 | X | 
PEIQYTSNYNKSVN (REGION 1..14: note = peptide derived from viral capsid protein) [SEQ ID NO: 1921] | X | X | X |  | X | 
STNLQRGNLALGET [SEQ ID NO: 1894] | X | X | X |  | X | 
FNIQVKEVTTNDGV (REGION 1..14: note = peptide derived from viral capsid protein) [SEQ ID NO: 1910] | X | X | X | 06 |  | 
GQTGDSESVPDPQP [SEQ ID NO: 1911] | X | X | X | 08 |  | 
365 (CSGRVEVKVQEEW) [compound 365] |  |  |  | 07 |  | 
KSVNVDFTVDTNGV (REGION 1..14: note = peptide derived from viral capsid protein) [SEQ ID NO: 1987] | X | X | X |  |  | 20
KRPVDQSPQEPDSS (REGION 1..14: note = peptide derived from viral capsid protein) [SEQ ID NO: 1986] | X | X | X |  |  | 19
TRPATAPQIGTVNS [SEQ ID NO: 1905] | X | X | X |  | X | 

Substance | group I [1] | group II [1] | group III [1] | peptide number among the top 20 peptide hits of mAb Mac2-158 [2] | top 10% [3] | ranked binding signal obtained from the microarray (01 binds strongest) [4]
LSRTQSTGGTQGTQ [SEQ ID NO: 1973] | X | X | X |  |  | 06
DDEEKFFPMHGNLI [SEQ ID NO: 1976] | X | X | X |  |  | 09
KKRPVDQSPQEPDS (REGION 1..14: note = peptide derived from viral capsid protein) [SEQ ID NO: 1985] | X | X | X |  |  | 18
DEEEIRTTNPVATE (REGION 1..14: note = peptide derived from viral capsid protein) [SEQ ID NO: 1902] | X | X | X | 18 | X | 
GETTRPATAAQTQV [SEQ ID NO: 1906] | X | X | X | 01 |  | 
GADGVGNSSGNWHC (REGION 1..14: note = peptide derived from viral capsid protein) [SEQ ID NO: 1982] | X | X | X |  |  | 15
TQGTQQLLFSQAGP [SEQ ID NO: 1974] | X | X | X |  |  | 07
EEEIRTTNPVATEQ (REGION 1..14: note = peptide derived from viral capsid protein) [SEQ ID NO: 1979] | X | X | X |  |  | 12
QLKAGDNPYLRYNH (REGION 1..14: note = peptide derived from viral capsid protein) [SEQ ID NO: 1913] | X | X | X | 13 |  | 
FQERLKEDTSFGGN (REGION 1..14: note = peptide derived from viral capsid protein) [SEQ ID NO: 1981] | X | X | X |  |  | 14
DGHFHPSPLMGGFG (REGION 1..14: note = peptide derived from viral capsid protein) [SEQ ID NO: 1977] | X | X | X |  |  | 10
YDQQLKAGDNPYLK (REGION 1..14: note = peptide derived from viral capsid protein) [SEQ ID NO: 1924] | X | X | X |  | X | 
WLEDNLSEGIREWW (REGION 1..14: note = peptide derived from viral capsid protein) [SEQ ID NO: 1971] | X | X | X |  |  | 04
DAEFQERLKEDTSF (REGION 1..14: note = peptide derived from viral capsid protein) [SEQ ID NO: 1975] | X | X | X |  |  | 08
SFITQYSTGQVSVE (REGION 1..14: note = peptide derived from viral capsid protein) [SEQ ID NO: 1914] | X | X | X | 17 |  | 
IFNIQVKEVTTSNG (REGION 1..14: note = peptide derived from viral capsid protein) [SEQ ID NO: 1907] | X | X | X | 02 |  | 
YFGYSTPWGYFDFN (REGION 1..14: note = peptide derived from viral capsid protein) [SEQ ID NO: 1972] | X | X | X |  |  | 05
